# Experimental data reported in US7556935B2 (Dana-Farber Cancer Institute, Inc., priority 2001, dated 2009).
# Where two headings read alike, the source gives them in different places.
# Key:
# [1] = test system: c-Abl; assay: c-Abl targeting to mitochondria under ER stress, immunofluorescence and immunoblot; type: cell-based; conditions: mitochondrial fraction
# Experimental: (§1) Cells were treated with A23187 (Sigma) or Brefeldin A (Sigma).
# Digital confocal immunofluorescence microscope: Cells grown on poly-D-lysine coated glass coverslips were fixed (3.7% formaldehyde in PBS, pH 7.4; 10 minutes), permeabilized (0.2% Triton X-100; 10 min), blocked for 30 minutes in media containing serum. After rinsing with PBS, immunostaining was performed by incubating the cells with 50 ng/slide of anti-c-Abl (K-12 rabbit polyclonal; Santa Cruz) and anti-grp-78 (C-20 goat polyclonal; Santa Cruz). For c-Abl and calreticulin staining, cells were incubated first with anti-c-Abl alone for 1 hour followed by blocking for 30 minutes in media containing serum. After washing with PBS, cells were then incubated with anti-calreticulin (rabbit polyclonal; StressGen). Finally, cells were incubated with a 1:250 dilution of CY-3 or Fluorescein (FITC)-conjugated anti-rabbit or anti-goat secondary antibodies (Jackson ImmunoResearch) for 1 hour. Mitochondria were stained with 0.006 ng/slide Mitotracker Green FM (Molecular Probes). Nuclei were stained with 4,6-diamino-2-phenylindole (DAPI; 1 mg/ml in PBS). Coverslips were mounted onto slides with 0.1 M Tris (pH 7.0) in 50% glycerol. Cells were visualized by digital confocal immunofluorescence and images were captured with cooled CCD camera mounted on a Zeiss Axioplan 2 microscope. Images were deconvolved using Slidebook software (Intelligent Imaging Innovations, Inc., Denver, Colo.).
# (§2) The supernatant was collected and centrifuged at 10,000×g for 10 minutes. […] Protein concentration was determined by the Bio-Rad protein estimation kit.
# [2] = test system: c-Abl; assay: c-Abl levels in the ER fraction, ER stress; type: cell-based
# Experimental: as §1
# (§3) Isolation of the ER fraction: Cells were washed with PBS, lysed in homogenization buffer (50 mM Tris-HCl, pH 8.0, 1 mM b-mercaptoethanol, 1 mM EDTA, 0.32 M sucrose and 0.1 mM PMSF), and then centrifuged at 5,000×g for 10 minutes. The supernatant was collected and centrifuged at 105,000×g for 1 hour. […] The resulting supernatant was used as the ER fraction.
# [3] = test system: grp78; assay: grp78 expression in the ER fraction, ER stress; type: cell-based
# Experimental: as §1, §3
# [4] = test system: c-Abl; assay: c-Abl levels in cytoplasmic and nuclear fractions, ER stress; type: cell-based
# Description: Isolation of cytoplasmic and nuclear fractions: The cytoplasmic and nuclear fractions were isolated as described in Example 1.
# [5] = test system: MEFs; assay: Apoptosis by sub-G1 DNA in MEFs under ER stress; type: cell-based, mouse; conditions: c-Abl−/− cells
# Experimental: Apoptosis assays: DNA content was assessed by staining ethanol-fixed cells with propidium iodide and monitoring by FACScan (Becton-Dickinson).
# [6] = test system: c-Abl; assay: Mitochondrial c-Abl kinase activity, GST-Crk(120-225) phosphorylation, ER stress; type: cell-based; conditions: anti-c-Abl immunoprecipitates of mitochondrial fraction
# Experimental: as §2
# Analysis of c-Abl activity: Cell lysates were prepared as described in Example 1 and subjected to immunoprecipitation with anti-c-Abl (K-12; Santa Cruz). The immunoprecipitates were resuspended in kinase buffer (see Example 1) containing […] of [g-32P]ATP and GST-Crk(120-225) or GST-Crk(120-212) for 15 minutes at 30° C. The reaction products were analyzed by SDS-PAGE and autoradiography.
# [7] = test system: cytochrome c; conditions: wild-type MEFs
# Experimental: (§4) Cell culture: COS7 cells and mouse embryonic fibroblasts (MEFs) derived from wild-type and c-Abl^−/− mice were cultured in Dulbecco's modified Eagle's medium containing 10% heat-inactivated fetal calf serum, 2 mM L-glutamine, 100 units/ml penicillin and 100 μg/ml streptomycin. DLD1 cells were grown as described (Polyak et al. (1997) Nature 389, 300-305). Cells were treated with H2O2 (Sigma), 30 mM N-acetyl-L-cysteine (NAC; Sigma) or 10 μM cis-platinum (Sigma).
# [8] = target: PKCd (Mus musculus, UniProt P28867); parameters: effect on H2O2-induced translocation of PKCd to mitochondria: dose or concentration left out as unconfirmed; conditions: NIH3T3 cells
# Experimental: (§5) Transfections were performed with Superfect (Qiagen).
# (§6) The supernatants (S1) were collected.
# [9] = test system: c-Abl; assay: c-Abl translocation to mitochondria in MEFs, oxidative stress; type: cell-based, mouse
# Experimental: Cells were treated with 1 mM H2O2 (Sigma) and 30 mM N-acetyl-L-cysteine (NAC; Sigma). Transient transfections were performed in the presence of calcium phosphate.
# Immunofluorescence microscopy: Cells were plated onto poly D-lysine coated glass coverslips 1 day prior to H2O2 treatment (1 hour) and then fixed with 3.7% formaldehyde/PBS (pH 7.4) for 10 minutes. Cells were washed with PBS, permeabilized with 0.2% Triton X-100 for 10 minutes, washed again and incubated for 30 minutes in complete medium. The coverslips were then incubated with […] of anti-c-Abl (K-12) for 1 hour followed by Texas Red-goat anti-rabbit Ig (H+L) conjugate (Molecular Probes, Eugene, Oreg.). Mitochondria were stained with 100 nM Mitotracker Green FM (Molecular Probes, OR). Nuclei were stained with 4,6-diamino-2-phenylindole (DAPI; 1 mg/ml in PBS). Coverslips were mounted onto slides with 0.1 M Tris (pH 7.0) in 50% glycerol. Cells were visualized by digital confocal immunofluorescence and images were captured with a cooled CCD camera mounted on a Zeiss Axioplan 2 microscope. Images were deconvolved using Slidebook software (Intelligent Imaging Innovations, Inc., Denver, Colo.).
# Protein concentration was determined by the Bio-Rad protein estimation kit.
# Preparation of cell lysates: Whole cell lysates (WCL) were prepared as described (Kharbanda et al. (1995) Nature 376, 785-788) and analyzed for protein concentration.
# Immunoprecipitation and immunoblot analysis. Soluble proteins ([…]) were incubated with anti-c-Abl (K-12; Santa Cruz Biotechnology) for 1 hour and precipitated with protein A-sepharose for 30 minutes. Immunoprecipitates and lysates ([…]) were resolved by SDS-PAGE and analyzed by immunoblotting with anti-c-Abl (24-11; Santa Cruz), anti-HSP60 (Stressgen, Victoria, British Columbia), anti-b-actin (Sigma) anti-PCNA (Calbiochem), anti-PDGF receptor (Oncogene) and anti-PKCd (Santa Cruz).
# [10] = target: T1, PKCd (Homo sapiens, UniProt Q05655); assay: PKCd translocation to mitochondria in U-937 cells, immunoblot of fractions; type: cell-based; parameters: subjecting cytoplasmic and mitochondrial fractions to immunoblotting with anti-PKC antibodies; endogenous in cells; host or cells: U-937
# Experimental: (§7) Cells were also treated with 10 μM rottlerin (Calbiochem).
# Mitochondria were stained with 0.006 ng/slide of Mitotracker Green FM (Molecular Probes). The slides were analyzed using a Zeiss Auxiphot fluorescence microscope coupled to a CCD camera and a power Macintosh 8100. Image analysis was performed using the IPLab Spectrum 3.1 software (Signal Analytics).
# as §5
# (§8) The cells were disrupted by Douce homogenization.
# as §6
# Mitochondria were stained with 0.006 ng/slide of Mitotracker Green FM (Molecular Probes). The slides were analyzed with a Zeiss Auxiphot fluorescence microscope coupled to a CCD camera and a power Macintosh 8100. Image analysis was performed using the IPLab Spectrum 3.1 software (Signal Analytics).
# [11] = target: PKCγ (Homo sapiens, UniProt P05129); assay: Cytoplasmic or mitochondrial PKCγ levels in U-937 cells, immunoblot
# [12] = test system: MCF-7/neo cells; assay: Apoptosis by sub-G1 DNA content in MCF-7/neo cells
# [13] = test system: mitochondrial transmembrane potential; assay: Mitochondrial transmembrane potential, Rhodamine 123 staining, MEFs; parameters: effect on H2O2-induced change in Ψ: dose or concentration left out as unconfirmed
# [14] = test system: PKCζ; assay: Cytoplasmic or mitochondrial PKCζ levels in U-937 cells, immunoblot
# [15] = test system: c-Abl; assay: c-Abl activity in cytoplasts devoid of nuclei; type: cell-based
# Experimental: (§9) Analysis of kinase activity: Cell lysates were prepared in lysis buffer (10 mM Tris-HCl, pH 7.5, 10 mM NaCl, 1 mM DTT, 0.1 mM EDTA, 3 mM MgCl2, 0.5 mM PMSF, 5 μg/ml leupeptin) containing 0.5% Nonidet P-40 and subjected to immunoprecipitation as described (Kharbanda et al. (1997) Nature 386, 732-735) with anti-c-Abl (sc-23; Santa Cruz) or mouse IgG (Santa Cruz). The immunoprecipitates were resuspended in kinase buffer (20 mM HEPES, pH 7.4, 10 mM MgCl2, 10 mM MnCl2) containing 2.5 μCi [g-32P]ATP and GST-Crk(120-225) or GST-Crk(120-212) for 20 minutes at 30° C. Anti-PKCd (sc-937; Santa Cruz) and anti-ERK1 (sc-93; Santa Cruz) immunoprecipitates were analyzed by using histone H1 and myelin basic protein (Upstate Biotecnology Inc.), respectively, as substrates. The reaction products were analyzed by SDS-PAGE and autoradiography.
# [16] = test system: c-Abl; assay: c-Abl immune complex kinase assay, phosphorylation of GST-Crk(120-225), COS7 cells; type: cell-based
# Experimental: as §4, §9
# [17] = test system: cytochrome c; assay: Cytochrome c release in U-937 cells, immunoblot of cytoplasmic fractions; type: cell-based, human; conditions: for cytochrome c release: U-937 cells, agent alone; for effect on H2O2-induced release of cytochrome c: U-937 cells pretreated with NAC (30 mM) or rottlerin (10 µM)
# Experimental: as §7, §5, §8
# [18] = test system: ATP levels; conditions: wild-type and c-Abl+ cells, H2O2
# Experimental: Quantitation of ATP: ATP levels were measured using an ATP Determination Kit (Molecular Probes).
# [19] = target: T1, PKCd; conditions: MCF-7 cells, TPA
# Experimental: Cell culture and reagents: Human U-937 myeloid leukemia cells (ATCC, Rockville, Md.) were grown in RPMI 1640 medium supplemented with 10% heat-inactivated fetal bovine serum (FBS), 100 units/ml penicillin, 100 μg/ml streptomycin, and 2 mM L-glutamine. MCF-7, MCF-7/neo, MCF-7/PKCdRD and 293T cells were grown in Dulbecco's modified Eagle's medium (DMEM) containing 10% FBS. […] Cells were also treated with 10 μM rottlerin (Calbiochem).
# [20] = test system: catalase; assay: Catalase levels in MEFs; type: cell-based, mouse
# Description: As a control, degradation was inhibited when [g-S]ATP was substituted for ATP to prevent ubiquitination. […] Lactacystin, another proteosome inhibitor, was used to assess degradation of catalase in cells.
# [21] = test system: U-937 cells; assay: Apoptosis by sub-G1 DNA content in U-937 cells; type: cell-based, human
# T1 sequence (Q05655 whole entry): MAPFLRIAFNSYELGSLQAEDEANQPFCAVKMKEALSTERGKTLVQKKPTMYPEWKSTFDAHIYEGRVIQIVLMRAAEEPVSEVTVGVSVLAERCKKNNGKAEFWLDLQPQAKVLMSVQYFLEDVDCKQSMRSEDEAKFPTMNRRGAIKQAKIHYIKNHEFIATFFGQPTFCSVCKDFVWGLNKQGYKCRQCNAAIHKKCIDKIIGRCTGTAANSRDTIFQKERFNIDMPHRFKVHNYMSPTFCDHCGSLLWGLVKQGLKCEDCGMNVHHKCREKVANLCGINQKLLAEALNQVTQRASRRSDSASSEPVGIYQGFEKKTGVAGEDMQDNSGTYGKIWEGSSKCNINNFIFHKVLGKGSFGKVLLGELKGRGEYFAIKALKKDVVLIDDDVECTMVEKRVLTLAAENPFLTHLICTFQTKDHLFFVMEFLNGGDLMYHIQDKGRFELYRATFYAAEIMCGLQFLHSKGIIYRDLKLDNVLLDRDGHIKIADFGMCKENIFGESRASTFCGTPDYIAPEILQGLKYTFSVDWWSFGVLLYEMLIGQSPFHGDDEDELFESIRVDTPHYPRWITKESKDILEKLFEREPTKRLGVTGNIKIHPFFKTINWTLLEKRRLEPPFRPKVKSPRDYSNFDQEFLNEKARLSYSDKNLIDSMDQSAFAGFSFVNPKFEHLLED
# Sequence of PKCd (Mus musculus, UniProt P28867) (P28867 whole entry): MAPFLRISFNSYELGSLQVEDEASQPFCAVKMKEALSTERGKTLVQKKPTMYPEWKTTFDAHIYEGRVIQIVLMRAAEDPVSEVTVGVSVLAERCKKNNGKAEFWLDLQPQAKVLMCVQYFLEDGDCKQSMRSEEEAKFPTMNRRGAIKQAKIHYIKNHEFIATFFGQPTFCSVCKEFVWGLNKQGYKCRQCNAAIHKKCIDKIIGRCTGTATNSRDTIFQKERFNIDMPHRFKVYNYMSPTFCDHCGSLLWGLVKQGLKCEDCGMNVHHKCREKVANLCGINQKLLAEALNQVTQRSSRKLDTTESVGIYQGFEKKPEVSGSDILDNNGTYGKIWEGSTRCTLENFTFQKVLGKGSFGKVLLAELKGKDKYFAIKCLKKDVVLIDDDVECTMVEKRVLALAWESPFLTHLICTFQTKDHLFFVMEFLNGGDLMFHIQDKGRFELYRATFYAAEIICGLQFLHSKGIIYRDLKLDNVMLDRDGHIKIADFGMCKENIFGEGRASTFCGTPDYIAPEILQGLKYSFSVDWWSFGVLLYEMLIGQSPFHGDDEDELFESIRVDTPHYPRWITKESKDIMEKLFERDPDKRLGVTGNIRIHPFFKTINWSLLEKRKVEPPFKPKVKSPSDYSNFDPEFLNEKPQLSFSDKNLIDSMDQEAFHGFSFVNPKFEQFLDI
compound,measurement,setting,value
C[C@H]1CCC/C=C/[C@@H]2C[C@H](O)C[C@H]2[C@H](O)/C=C/C(=O)O1 [Brefeldin A],"c-Abl protein in the mitochondrial fraction, immunoblot",[1],increases in c-Abl protein
same,c-Abl levels in the ER fraction,[2],decreases
same,expression of grp78,[3],increases in grp78
same,c-Abl levels in the cytoplasm or nucleus,[4],no detectable effect
same,induction of apoptosis,[5],abrogated
same,mitochondrial c-Abl activity,[6],increases in mitochondrial c-Abl activity
"OO [H2O2, hydrogen peroxide]",cytochrome c in cytoplasmic lysates,[7],increased levels of cytochrome c
same,localization of PKCd to mitochondria,[8]; H2O2,localization of PKCd to mitochondria
same,total c-Abl that localizes to mitochondria,"[9]; MEFs following H2O2, approximately 4% without treatment",approximately 20%
same,"increase in mitochondrial c-Abl protein, densitometric scanning","[9]; MEFs, 0.5 to 1 hour of H2O2 treatment",> 5 fold
same,mitochondrial PKCd,[10]; 1 mM H2O2,increases in mitochondrial PKCd
same,mitochondrial levels of PKCγ,[11]; H2O2,little if any effect
same,apoptosis,[12],induction of apoptosis
same,mitochondrial transmembrane potential (Ψ),"[13]; wild-type cells, H2O2",substantially diminished
same,mitochondrial levels of PKCζ,[14]; H2O2,little if any effect
same,c-Abl activity in cytoplasts,[15],induction of c-Abl activity
same,stimulation of the Crk kinase activity of anti-c-Abl immunoprecipitates,"[16]; COS7 cells exposed to H2O2, GST-Crk(120-225) substrate",4-5 fold
same,time of maximal induction of c-Abl activity,[16]; H2O2 exposure,30 to 60 min
same,induction of c-Abl activity,[16]; exposure to 1 mM H2O2,5 fold
same,cytochrome c release,[17],induces cytochrome c release
same,ATP levels,[18],depletion of ATP
"CC(=O)N[C@@H](CS)C(=O)O [NAC, N-acetyl-L-cysteine]",effect on H2O2-induced translocation of c-Abl to mitochondria,[9]; MEFs,inhibited
same,effect on H2O2-induced localization of PKCd to mitochondria,[10]; 30 mM NAC,inhibits
same,effect on H2O2-induced phosphorylation of GST-Crk(120-225) by c-Abl,[16]; 30 mM NAC,inhibited
same,effect on H2O2-induced release of cytochrome c,[17],blocks
CCCCCCCCCCCCCC(=O)O[C@@H]1[C@@H](C)[C@@]2(O)[C@@H](C=C(CO)C[C@]3(O)C(=O)C(C)=C[C@@H]23)[C@H]2C(C)(C)[C@]12OC(C)=O [TPA],translocation of PKCd to mitochondria,"[10]; 250 nM TPA, 100 nM bryostatin, 0.5 units/ml PLC, 10 μM DOG",increases in mitochondrial PKCd
same,percent PKCd translocation to mitochondria,"[10]; 250 nM TPA, scanned immunoblots",approximately 40%
same,cytoplasmic or mitochondrial levels of PKCγ,[11]; TPA,no detectable effect
same,apoptosis,[12],induction of apoptosis
same,cytoplasmic or mitochondrial levels of PKCζ,[14]; TPA,no detectable effect
same,translocation of PKCd to mitochondria,[19],translocates to mitochondria
same,cytochrome c release,[17],cytochrome c release
"N.N.[Cl][Pt][Cl] [cisplatin, cis-platinum]",c-Abl activity in cytoplasts,[15],no detectable effect
CC(=O)N[C@@H](CSC(=O)[C@]1([C@@H](O)C(C)C)NC(=O)[C@H](C)[C@@H]1O)C(=O)O [lactacystin],catalase levels,[20]; c-abl−/−arg−/− cells,little if any effect
same,catalase levels,[20]; wild-type MEFs,increase in catalase levels
CC(=O)c1c(O)c(C)c(O)c(Cc2c(O)c3c(c(C(=O)/C=C/c4ccccc4)c2O)OC(C)(C)C=C3)c1O [rottlerin],effect on H2O2-induced translocation of PKCd to mitochondria,[8]; rottlerin,inhibits
same,effect on H2O2-induced translocation of c-Abl to mitochondria,[9]; MEFs,inhibited
same,constitutive levels of mitochondrial c-Abl,"[9]; MEFs, rottlerin alone",no effect
same,effect on TPA-induced localization of PKCd to mitochondria,[10]; 10 μM rottlerin,abrogated
same,"apoptosis, sub-G1 DNA content",[21]; rottlerin alone,low level of apoptosis
same,effect on apoptotic response to TPA,[21]; rottlerin and TPA,significantly attenuated
same,effect on H2O2-induced release of cytochrome c,[17],blocked
same,effect on TPA-induced cytochrome c release,[17]; U-937 cells pretreated with rottlerin before TPA,significantly blocks
same,cytochrome c release,[17],detectable release of cytochrome c
cyclosporin A,effect on H2O2-induced change in Ψ,[13]; wild-type MEFs pretreated with cyclosporin A,abrogated
